According to patent US9145386B2, “SOD-imitating metal complexes” (UNIVERSITAT DE VALENCIA, priority 2009, dated 2015):

Assays:
[1] = Stability constants for the formation of metal complexes with Mn2+ (potentiometry); assay type: physicochemical
Experimental: (§1) Potentiometric measurements were performed to determine the acid-base behaviour of the new family of compounds, yielding the overall protonation constants required for the subsequent study on the formation of metal complexes with Cu(II), Fe(II) and Mn(II).
The evaporation was in fact carried out in flasks, in contact with atmospheric oxygen.

[2] = Potentiometric determination of protonation constants; assay type: physicochemical; conditions: NaClO4 0.15 mol·dm^−3, 298.1±0.1 K; for logarithm of protonation constant, L + H = HL: standard deviation of last figure in brackets
Experimental: as §1
The numbers in brackets indicate the standard deviation of the last significant figure. ^a) The overall basicity constant is β=ΣKHjL

stability constant, Mn + L + H2O = MnL(OH) + H^+ [1]	stability constant, MnL + OH = MnL(OH) [1]	logarithm of protonation constant, H3L + H = H4L [2]	SMILES	stability constant (log K), Mn + L = MnL [1]	Log β (overall basicity constant) [2]	logarithm of protonation constant, H2L + H = H3L [2]	logarithm of protonation constant, HL + H = H2L [2]	logarithm of protonation constant, L + H = HL [2]	stability constant, Mn + L + H = HMnL [1]	stability constant, MnL + H = HMnL [1]
−1.36(1)	3.45(1)	2.82(1)	c1cc2nc(c1)CNCCN(CCNCc1ccnc3ccccc13)CCNC2 [Compound 1]	8.91(1)	27.00(1)	5.94(1)	8.31(1)	9.93(1)		
			c1cc2nc(c1)CNCCN(CCNCc1ccc3ccccc3n1)CCNC2 [Compound 2]	11.08(1)	24.66(2)	6.23(1)	8.40(1)	10.03(1)	16.23(6)	5.15(2)
